Like-named read-outs stand apart in the source and are kept apart here.
Experiments:
[1] = target: HCV NS3/4A protease genotype 1b (Hepatitis C virus genotype 1b, UniProt P26663); assay: HCV NS3/4A protease time-resolved fluorescence (TRF) assay, Ki against genotype 1b; type: biochemical; conditions: IC50 [gt-1b] (nM), NS3/4A genotype 1b, enzyme 0.2 nM
Outline: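 Time-resolved fluorescence readout of NS3/4A cleavage of 25 nM europium-labelled peptide over 2.5 h at room temperature, enzyme levels set for signal/background 10–30 (0.2, 0.4, 0.025 nM for 1b, A156T, 3a). Ki by IC50=Ki(1+[S]/KM).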

HCV genotype 1b replicon = assay: HCV replicon assay, genotype 1b replicon EC50; type: cell-based, Hepatitis C virus; conditions: Hepatitis C virus, genotype 1b replicon, read-out: EC50 [gt-1b]
Outline: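 Potency comes from a four-parameter fit of signal as percent of DMSO control. Replicon-bearing cells were treated 24-48 hours with a compound dilution series in absence of G418, and replicon RNA was quantified normalized to cyclophilin A RNA, or luciferase read.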

Structure (SMILES)	IC50 ([1]; K+ salt) [nM]	EC50 (HCV genotype 1b replicon; K+ salt) [nM]	IC50 [1] [nM]	EC50 (HCV genotype 1b replicon) [nM]
COc1ccc2c3c(c(C4CC4)nc2c1)O[C@]1(CC3)C[C@H]2C(=O)N[C@]3(C(=O)NS(=O)(=O)C4(C)CC4)C[C@H]3/C=C\CCCCC[C@H](NC(=O)OC3CCCC3)C(=O)N2C1 [Example 134, cyclopentyl [(2R,6S,12Z,13aS,14aR,16aS)-5′-cyclopropyl-8′-methoxy-14a-{[(1-methylcyclopropyl)sulfonyl]carbamoyl}-5,16-dioxo-1,1′,2′,5,6,7,8,9,10,11,13a,14,14a,15,16,16a-hexadecahydrospiro[cyclopropa[e]pyrrolo[1,2-a][1,4]diazacyclopentadecine-2,3′-pyrano[2,3-c]quinolin]-6-yl]carbamate]	0.014	2.84	–	–
COc1ccc2c3c(c(C4CC4)nc2c1)O[C@]1(CC3)C[C@H]2C(=O)N[C@]3(C(=O)NS(=O)(=O)C4(C)CC4)C[C@H]3/C=C\CCCCC[C@H](NC(=O)OC3(C)CC3)C(=O)N2C1 [Example 135, 1-methylcyclopropyl [(2R,6S,12Z,13aS,14aR,16aS)-5′-cyclopropyl-8′-methoxy-14a-{[(1-methylcyclopropyl)sulfonyl]carbamoyl}-5,16-dioxo-1,1′,2′,5,6,7,8,9,10,11,13a,14,14a,15,16,16a-hexadecahydrospiro[cyclopropa[e]pyrrolo[1,2-a][1,4]diazacyclopentadecine-2,3′-pyrano[2,3-c]quinolin]-6-yl]carbamate]	0.037	2.82	–	–
COc1ccc2c3c(c(C4CC4)nc2c1)O[C@]1(CC3)C[C@H]2C(=O)N[C@]3(C(=O)NS(=O)(=O)C4(C)CC4)C[C@H]3/C=C\CCCCC[C@H](NC(=O)OCC(C)C)C(=O)N2C1 [Example 136, 2-methylpropyl [(2R,6S,12Z,13aS,14aR,16aS)-5′-cyclopropyl-8′-methoxy-14a-{[(1-methylcyclopropyl)sulfonyl]carbamoyl}-5,16-dioxo-1,1′,2′,5,6,7,8,9,10,11,13a,14,14a,15,16,16a-hexadecahydrospiro[cyclopropa[e]pyrrolo[1,2-a][1,4]diazacyclopentadecine-2,3′-pyrano[2,3-c]quinolin]-6-yl]carbamate]	0.019	2.12	–	–
COc1ccc2c3c(c(C4CC4)nc2c1)O[C@]1(CC3)C[C@H]2C(=O)N[C@]3(C(=O)NS(=O)(=O)C4(C)CC4)C[C@H]3/C=C\CCCCC[C@H](NC(=O)OC(C)C)C(=O)N2C1 [Example 137, propan-2-yl [(2R,6S,12Z,13aS,14aR,16aS)-5′-cyclopropyl-8′-methoxy-14a-{[(1-methylcyclopropyl)sulfonyl]carbamoyl}-5,16-dioxo-1,1′,2′,5,6,7,8,9,10,11,13a,14,14a,15,16,16a-hexadecahydrospiro[cyclopropa[e]pyrrolo[1,2-a][1,4]diazacyclopentadecine-2,3′-pyrano[2,3-c]quinolin]-6-yl]carbamate]	–	–	0.025	1.71
CCOC(=O)N[C@H]1CCCCC/C=C\[C@@H]2C[C@@]2(C(=O)NS(=O)(=O)C2(C)CC2)NC(=O)[C@@H]2C[C@]3(CCc4c(c(C5CC5)nc5cc(OC)ccc45)O3)CN2C1=O [Example 138, ethyl [(2R,6S,12Z,13aS,14aR,16aS)-5′-cyclopropyl-8′-methoxy-14a-{[(1-methylcyclopropyl)sulfonyl]carbamoyl}-5,16-dioxo-1,1′,2′,5,6,7,8,9,10,11,13a,14,14a,15,16,16a-hexadecahydrospiro[cyclopropa[e]pyrrolo[1,2-a][1,4]diazacyclopentadecine-2,3′-pyrano[2,3-c]quinolin]-6-yl]carbamate]	–	–	0.043	2.51
COC(=O)N[C@H]1CCCCC/C=C\[C@@H]2C[C@@]2(C(=O)NS(=O)(=O)C2(C)CC2)NC(=O)[C@@H]2C[C@]3(CCc4c(c(C5CC5)nc5cc(OC)ccc45)O3)CN2C1=O [Example 139, methyl [(2R,6S,12Z,13aS,14aR,16aS)-5′-cyclopropyl-8′-methoxy-14a-{[(1-methylcyclopropyl)sulfonyl]carbamoyl}-5,16-dioxo-1,1′,2′,5,6,7,8,9,10,11,13a,14,14a,15,16,16a-hexadecahydrospiro[cyclopropa[e]pyrrolo[1,2-a][1,4]diazacyclopentadecine-2,3′-pyrano[2,3-c]quinolin]-6-yl]carbamate]	–	–	0.127	8.09
COc1ccc2nc(C)c3c(c2c1)CC[C@]1(C[C@H]2C(=O)N[C@]4(C(=O)NS(=O)(=O)C5(C)CC5)C[C@H]4/C=C\CCCCC[C@H](NC(=O)OC4(C)CC4)C(=O)N2C1)O3 [Example 141, 1-methylcyclopropyl [(2R,6S,12Z,13aS,14aR,16aS)-9′-methoxy-5′-methyl-14a-{[(1-methylcyclopropyl)sulfonyl]carbamoyl}-5,16-dioxo-1,1′,2′,5,6,7,8,9,10,11,13a,14,14a,15,16,16a-hexadecahydrospiro[cyclopropa[e]pyrrolo[1,2-a][1,4]diazacyclopentadecine-2,3′-pyrano[2,3-c]quinolin]-6-yl]carbamate]	–	–	0.003	1.47
COc1ccc2nc(C)c3c(c2c1)CC[C@]1(C[C@H]2C(=O)N[C@]4(C(=O)NS(=O)(=O)C5(C)CC5)C[C@H]4/C=C\CCCCC[C@H](NC(=O)OCC(C)C)C(=O)N2C1)O3 [Example 142, 2-methylpropyl [(2R,6S,12Z,13aS,14aR,16aS)-9′-methoxy-5′-methyl-14a-{[(1-methylcyclopropyl)sulfonyl]carbamoyl}-5,16-dioxo-1,1′,2′,5,6,7,8,9,10,11,13a,14,14a,15,16,16a-hexadecahydrospiro[cyclopropa[e]pyrrolo[1,2-a][1,4]diazacyclopentadecine-2,3′-pyrano[2,3-c]quinolin]-6-yl]carbamate]	–	–	0.004	1.14
Cc1nc2ccccc2c2c1O[C@]1(CC2)C[C@H]2C(=O)N[C@]3(C(=O)NS(=O)(=O)C4(C)CC4)C[C@H]3/C=C\CCCCC[C@H](NC(=O)OC3CCCCC3)C(=O)N2C1 [Example 143, cyclohexyl [(2R,6S,12Z,13aS,14aR,16aS)-5′-methyl-14a-{[(1-methylcyclopropyl)sulfonyl]carbamoyl}-5,16-dioxo-1,1′,2′,5,6,7,8,9,10,11,13a,14,14a,15,16,16a-hexadecahydrospiro[cyclopropa[e]pyrrolo[1,2-a][1,4]diazacyclopentadecine-2,3′-pyrano[2,3-c]quinolin]-6-yl]carbamate]	0.009	1.18	–	–
CC(C)COC(=O)N[C@H]1CCCCC/C=C\[C@@H]2C[C@@]2(C(=O)NS(=O)(=O)C2(C)CC2)NC(=O)[C@@H]2C[C@]3(CCc4c(c(C5CC5)nc5ccc(F)cc45)O3)CN2C1=O [Example 144, 2-methylpropyl [(2R,6S,12Z,13aS,14aR,16aS)-5′-cyclopropyl-9′-fluoro-14a-{[(1-methylcyclopropyl)sulfonyl]carbamoyl}-5,16-dioxo-1,1′,2′,5,6,7,8,9,10,11,13a,14,14a,15,16,16a-hexadecahydrospiro[cyclopropa[e]pyrrolo[1,2-a][1,4]diazacyclopentadecine-2,3′-pyrano[2,3-c]quinolin]-6-yl]carbamate]	–	–	0.007	1.02
CC1(S(=O)(=O)NC(=O)[C@@]23C[C@H]2/C=C\CCCCC[C@H](NC(=O)OC2CCCC2)C(=O)N2C[C@@]4(CCc5c(c(C6CC6)nc6ccc(F)cc56)O4)C[C@H]2C(=O)N3)CC1 [Example 145, cyclopentyl [(2R,6S,12Z,13aS,14aR,16aS)-5′-cyclopropyl-9′-fluoro-14a-{[(1-methylcyclopropyl)sulfonyl]carbamoyl}-5,16-dioxo-1,1′,2′,5,6,7,8,9,10,11,13a,14,14a,15,16,16a-hexadecahydrospiro[cyclopropa[e]pyrrolo[1,2-a][1,4]diazacyclopentadecine-2,3′-pyrano[2,3-c]quinolin]-6-yl]carbamate]	–	–	0.006	1.16
Cc1nc2ccc(OC(F)(F)F)cc2c2c1O[C@]1(CC2)C[C@H]2C(=O)N[C@]3(C(=O)NS(=O)(=O)C4(C)CC4)C[C@H]3/C=C\CCCCC[C@H](NC(=O)OCC3CCCC3)C(=O)N2C1 [Example 146, cyclopentylmethyl [(2R,6S,12Z,13aS,14aR,16aS)-5′-methyl-14a-{[(1-methylcyclopropyl)sulfonyl]carbamoyl}-5,16-dioxo-9′-(trifluoromethoxy)-1,1′,2′,5,6,7,8,9,10,11,13a,14,14a,15,16,16a-hexadecahydrospiro[cyclopropa[e]pyrrolo[1,2-a][1,4]diazacyclopentadecine-2,3′-pyrano[2,3-c]quinolin]-6-yl]carbamate]	–	–	0.03	11.8
Cc1nc2c(F)cccc2c2c1O[C@]1(CC2)C[C@H]2C(=O)N[C@]3(C(=O)NS(=O)(=O)C4(C)CC4)C[C@H]3/C=C\CCCCC[C@H](NC(=O)OCC(C)C)C(=O)N2C1 [Example 147, 2-methylpropyl [(2R,6S,12Z,13aS,14aR,16aS)-7′-fluoro-5′-methyl-14a-{[(1-methylcyclopropyl)sulfonyl]carbamoyl}-5,16-dioxo-1,1′,2′,5,6,7,8,9,10,11,13a,14,14a,15,16,16a-hexadecahydrospiro[cyclopropa[e]pyrrolo[1,2-a][1,4]diazacyclopentadecine-2,3′-pyrano[2,3-c]quinolin]-6-yl]carbamate]	–	–	0.01	1.05

From patent publication US8987195B2 (priority 2012, dated 2015)
